According to ChEMBL document CHEMBL1131886 (Bioorg Med Chem Lett, 1999):

Columns and labels:
[1] = biological target: T1, 5-hydroxytryptamine receptor 1A (Homo sapiens, UniProt P08908); assay: Displacement of specific [3H]- 5-HT binding to cloned human 5-hydroxytryptamine 1A receptor stably expressed in HeLa cells; assay type: cell-based
T1 sequence (P08908 whole entry): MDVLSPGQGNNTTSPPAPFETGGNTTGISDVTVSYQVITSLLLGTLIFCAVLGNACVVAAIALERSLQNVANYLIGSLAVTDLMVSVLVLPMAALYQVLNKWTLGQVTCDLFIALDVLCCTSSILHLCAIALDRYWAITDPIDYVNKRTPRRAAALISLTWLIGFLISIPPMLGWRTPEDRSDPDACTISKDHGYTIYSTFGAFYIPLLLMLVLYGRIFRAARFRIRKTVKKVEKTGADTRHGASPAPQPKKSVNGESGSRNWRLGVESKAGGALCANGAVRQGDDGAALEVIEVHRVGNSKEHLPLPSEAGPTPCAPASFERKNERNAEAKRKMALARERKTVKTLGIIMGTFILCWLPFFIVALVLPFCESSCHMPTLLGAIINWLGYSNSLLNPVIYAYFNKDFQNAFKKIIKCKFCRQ

[2] = biological target: T2, 5-hydroxytryptamine receptor 1A (Homo sapiens) (UniProt P08908); assay: Percent efficacy against human 5-hydroxytryptamine 1A receptor relative to maximal 5-HT response; assay type: functional
T2 sequence (whole entry): T1 sequence (P08908 whole entry)

[3] = biological target: Sodium-dependent serotonin transporter (Rattus norvegicus, UniProt P31652); assay: Displacement of specific [3H]- citalopram binding to 5-HT uptake site in rat whole cortex
[4] = biological target: T1, 5-hydroxytryptamine receptor 1A; assay: Stimulation of [35S]- GIPyS binding to cloned human 5-hydroxytryptamine 1A receptor stably expressed in HeLa cells; assay type: cell-based
[5] = biological target: T2, 5-hydroxytryptamine receptor 1A (Homo sapiens); assay: Percent efficacy against cloned human 5-hydroxytryptamine 1A receptor normalized to the maximal 5-HT response; assay type: functional
[6] = biological target: T1, 5-hydroxytryptamine receptor 1A; assay: Stimulation of [35S]- […] binding to cloned human 5-hydroxytryptamine 1A receptor stably expressed in HeLa cells; Inverse; assay type: cell-based

Sequence of Sodium-dependent serotonin transporter (P31652 whole entry): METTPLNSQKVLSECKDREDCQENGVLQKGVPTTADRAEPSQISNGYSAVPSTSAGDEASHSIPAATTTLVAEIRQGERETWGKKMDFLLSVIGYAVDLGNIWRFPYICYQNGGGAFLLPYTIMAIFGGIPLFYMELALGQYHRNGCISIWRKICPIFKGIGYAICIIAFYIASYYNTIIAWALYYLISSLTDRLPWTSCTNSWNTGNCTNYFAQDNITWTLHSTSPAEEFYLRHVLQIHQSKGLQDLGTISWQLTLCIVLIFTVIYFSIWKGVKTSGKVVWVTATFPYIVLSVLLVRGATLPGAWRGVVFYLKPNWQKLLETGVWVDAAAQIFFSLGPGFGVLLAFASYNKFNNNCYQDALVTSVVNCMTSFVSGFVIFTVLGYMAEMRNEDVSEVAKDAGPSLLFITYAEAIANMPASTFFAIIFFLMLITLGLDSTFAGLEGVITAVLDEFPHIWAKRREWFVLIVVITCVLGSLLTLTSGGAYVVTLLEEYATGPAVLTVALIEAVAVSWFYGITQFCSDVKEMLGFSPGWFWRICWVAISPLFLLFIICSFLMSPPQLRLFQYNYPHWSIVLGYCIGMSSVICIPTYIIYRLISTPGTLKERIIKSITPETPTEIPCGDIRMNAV

| Compound | Ki [1] | Efficacy [2] | Ki [3] | EC50 [4] | Efficacy [5] | EC50 [6] |
| --- | --- | --- | --- | --- | --- | --- |
| O[C@H](COc1ccccc1F)CN1CCC2(CC1)OCc1c2ccc2ccccc12 | 1 nM | 100% | 52 nM | 1.1 nM |  |  |
| CC(C)NCC(O)COc1cccc2[nH]ccc12 (stereo not drawn) |  | 36% |  |  |  |  |
| OC(CCc1ccccc1)CN1CCC2(CC1)OCc1c2ccc2ccccc12 (stereo not drawn) | 8.3 nM | 87% | 10 nM | 37 nM |  |  |
| c1ccc(CCCCN2CCC3(CC2)OCc2c3ccc3ccccc23)cc1 | 72 nM |  | 28 nM | > 10000 nM |  |  |
| O[C@@H](COc1ccccc1F)CN1CCC2(CC1)OCc1c2ccc2ccccc12 | 6 nM | 92% | 120 nM | 21 nM |  |  |
| OC(COCc1ccccc1)CN1CCC2(CC1)OCc1c2ccc2ccccc12 (stereo not drawn) | 2.2 nM | 108% | 83 nM | 31 nM |  |  |
| O[C@H](COc1ccccc1)CN1CCC2(CC1)OCc1c2ccc2ccccc12 | 1.1 nM | 81% | 50 nM | 1.2 nM |  |  |
| O=C1CCc2c(F)ccc(OCC(O)CN3CCC4(CC3)OCc3c4ccc4ccccc34)c21 (stereo not drawn) | 2.3 nM |  | 45 nM | 3.5 nM | 65% |  |
| CCc1cccc(OC[C@@H](O)CN2CCC3(CC2)OCc2c3ccc3ccccc23)c1 | 1.7 nM | 61% | 87 nM | 3.3 nM |  |  |
| OC(COc1ccc(F)c2c1OCCC2)CN1CCC2(CC1)OCc1c2ccc2ccccc12 (stereo not drawn) | 2.8 nM |  | 49 nM | > 10000 nM |  |  |
| OC(COc1cc(F)cc2c1OCCC2)CN1CCC2(CC1)OCc1c2ccc2ccccc12 (stereo not drawn) | 5.5 nM |  | 72 nM |  |  | Inverse agonist |
